Like-named read-outs stand apart in the source and are kept apart here.
What was measured:
[1] = tested on: DND41 (T-ALL leukaemia) cells; assay: Proliferation of DND41 cells, 4 days; type: cell-based; conditions: doses exceeding 10 μM of each drug, alone and in combination
Procedure: Inventors' model predictions were corroborated by cell line experiments where proliferation responses of T-ALL cells (DND41) to Type I inhibitor Ruxolitinib, Type II inhibitor CHZ868, and their combination were measured (FIG. 17). […] However, the inventors observed saturation of inhibition of cellular proliferation. […] This incomplete inhibition of proliferation is explained by activation of STAT family of transcription factors by alternative signalling pathways.

RAF = conditions: literature values; cited from earlier work
[2] = tested on: HER2-positive breast cancer cells; assay: HER2-positive breast cancer cells stimulated with Heregulin (HRG); type: cell-based
Procedure: Thus, in order to model conditions of resistance to ErbB inhibitors, all proliferation assays were performed in the presence of HRG.

[3] = tested on: ERK signaling, MEL-JUSO cells; assay: ERK signaling in growing MEL-JUSO cells, Western Blot, 1 hr; type: cell-based; conditions: trametinib at doses that do not fully inhibit ERK activation
Procedure: Cells were transferred on ice, scraped using lysis buffer (10 mM Tris pH 7.5, 150 mM NaCl, and 0.5% (v/v) NP-40) complemented with protease and phosphatase inhibitors, and the cellular debris removed from the lysate by centrifugation at 10,000×g at 4° C. for 10 min. […] Lysates were then resolved by SDS PAGE (12%) and transferred on a polyvinylidene difluoride membrane (Millipore). Protein visualization was performed in combination with horseradish peroxidase-conjugated secondary antibodies (Cell Signalling Technologies) and the enhanced chemiluminescence system (GE Healthcare) using the Advanced Molecular Vision Chemi Image Unit associated with ChemoStar Imager (INTAS Science Imaging Instruments GmbH) for the following antibodies: Polyclonal rabbit anti-human mitogen-activated protein (MAP) kinase [extra-cellular signal-regulated kinase (ERK) 1 and ERK2] antibody (Sigma), monoclonal mouse anti-human MAP kinase activated (diphosphorylated ERK1 and ERK2) antibody (Sigma).

MEL-JUSO cells = assay: Cell proliferation assay (MTS) in MEL-JUSO cells; type: cell-based; conditions: Homo sapiens, read-out: GI50 (a dose inhibiting cell proliferation by 50%)
Procedure: Cell proliferation was analyzed by CellTiter 96 Aqueous One Solution Cell Proliferation Assay (MTS; Promega) according to manufacturer's instructions. For this, 5,000 cells were plated per well of 96-well tissue culture plates (in 200 μL of medium).

[4] = tested on: MEK signaling, A375 (WT RAS, BRAF^V600E/V600E) cells; assay: cells; conditions: Homo sapiens, A-375, 1 h, read-out: IC50, MEK signaling response
Procedure: (§1) Cell lines were either purchased from ATCC (SKMEL2, A375) or DSMZ (MEL-JSUO). […] All cells were grown in RPMI (Gibco) supplemented with 2 mM L-glutamine and 10% (v/v) fetal bovine serum in a humidified atmosphere of 5% CO2 at 37° C. Cells were seeded in 12-well plates (Greiner CELLSTAR dishes) at the density of 10^5 cells per well. After reaching sufficient confluency, cells were treated with different concentrations of inhibitors and DMSO as control. To prepare the protein lysates, plates were transferred on ice, washed with ice-cold PBS and harvested by scraping in specific ELISA buffers as indicated below.
(§2) Briefly, following the addition of complete MSD lysis buffer and scraping the cells from the surface of the dish, the cellular debris was removed from the lysate by centrifugation at 10000×g at 4° C. for 10 min. Protein concentration was determined using the BCA test according to the manufacturer's instructions (Pierce™ BCA Protein Assay Kit).

all RAF isoforms = conditions: literature (King 2006; Wan 2004; Wilhelm 2004); cited from earlier work
[5] = tested on: ERK signaling, MEL-JUSO cells; assay: ERK signaling (ppERK) in growing MEL-JUSO cells, LUMINEX xMAP, 24 hr; type: cell-based; conditions: extending into the micromolar range
Procedure: Following the addition of complete Luminex lysis buffer and scraping the cells from the surface of the dish, the cellular debris was removed from the lysate by centrifugation at 10000×g at 4° C. for 10 min. The pellet was discarded and the protein concentration of lysates was adjusted to 0.3 μg/μL using the BCA assay kit. xMAP assays were performed on a Luminex-3D platform (Luminex, Austin, TX) using commercially available phosphoprotein antibody-coupled beads (ProtATonce, Athens, Greece). […] Additionally, for loading control the levels of glyceraldehyde 3-phosphate dehydrogenase (GAPDH) protein were analyzed in a separate setting.

[6] = tested on: ERK signaling, MEL-JUSO cells; assay: ERK signaling (ppERK) in growing MEL-JUSO cells, MESOSCALE system, 24 hr; type: cell-based; conditions: applied separately, high doses (12 μM), following paradoxical activation
Procedure: as §1, §2

## CC(=O)Nc1cc(Oc2ccc3c(nc(Nc4ccc(F)cc4F)n3C)c2C)ccn1 [CHZ868]
[1]
  plateau level of suppression of cellular proliferation: ~60%

## COC(=O)N[C@@H](C)CNc1nccc(-c2cn(C(C)C)nc2-c2cc(Cl)cc(NS(C)(=O)=O)c2F)n1 [LGX818]
RAF
  1/koff: ≥ 2 h

## CS(=O)(=O)CCNCc1ccc(-c2ccc3ncnc(Nc4ccc(OCc5cccc(F)c5)c(Cl)c4)c3c2)o1 [Lapatinib]
[2]
  sensitivity of cells after stimulation with Heregulin (HRG): resistant to Lapatinib treatment

## N#CC[C@H](C1CCCC1)n1cc(-c2ncnc3[nH]ccc23)cn1 [Ruxolitinib]
[1]
  plateau level of suppression of cellular proliferation: ~60%

## CC(C)(C)c1nc(-c2cccc(NS(=O)(=O)c3c(F)cccc3F)c2F)c(-c2ccnc(N)n2)s1 [dabrafenib]
[3]
  effect on ERK signaling of addition to trametinib: increases rather than decreases ERK signaling

## CNC(=O)c1cc(Oc2ccc(NC(=O)Nc3ccc(Cl)c(C(F)(F)F)c3)cc2)ccn1 [sorafenib]
MEL-JUSO cells; MEL-JUSO
  GI50: 8 µM
[4]
  IC50: 44 µM
All RAF isoforms
  inhibition of RAF isoforms in in vitro kinase assays: low nM range
[5]
  ERK response to each inhibitor applied separately: marked paradoxical ERK activation
[6]
  ppERK response: could only slightly inhibit ppERK

## CCCS(=O)(=O)Nc1ccc(F)c(C(=O)c2c[nH]c3ncc(-c4ccc(Cl)cc4)cc23)c1F [vemurafenib]
MEL-JUSO cells; MEL-JUSO cells, applied individually
  GI50: 32 µM

Source: patent US20240415836A1, “COMPOSITION COMPRISING TWO ENZYME INHIBITORS TARGETING TWO DIFFERENT CONFORMATIONS OF AN ENZYME” (University College Dublin, priority 2018, published 2024)
